Source: US11572384B2, “Unusual substrates of tubulin tyrosine ligase” (FORSCHUNGSVERBUND BERLIN E.V., priority 2016, dated 2023)

Target: T1, TTL (Canis lupus familiaris, UniProt A0A8I3N5B1)
T1 construct: His-Tag (N, cleaved yes); Sumo (N, cleaved yes); made in house; host or cells: E. coli BL21 (DE3)
T1 sequence (A0A8I3N5B1 1-377): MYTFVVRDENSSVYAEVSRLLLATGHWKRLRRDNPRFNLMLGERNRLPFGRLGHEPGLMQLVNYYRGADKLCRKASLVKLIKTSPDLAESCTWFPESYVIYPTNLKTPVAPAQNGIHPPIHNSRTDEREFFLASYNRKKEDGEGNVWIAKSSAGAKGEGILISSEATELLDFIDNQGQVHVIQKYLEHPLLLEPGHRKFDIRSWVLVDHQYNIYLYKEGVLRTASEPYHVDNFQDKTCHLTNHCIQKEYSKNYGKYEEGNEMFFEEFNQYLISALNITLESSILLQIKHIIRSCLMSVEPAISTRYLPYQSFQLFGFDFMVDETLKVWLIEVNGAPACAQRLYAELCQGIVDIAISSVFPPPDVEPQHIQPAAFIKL
Experiment: TTL mediated labelling of Tub-tagged proteins with coumarin derivative 7 (SDS-PAGE, in-gel fluorescence)
Assay type: biochemical
Conditions: 1 μM TTL, 37°, 1-6 h
Experimental: TTL (Canis lupus) having NCBI Accession number XP_540180.2 was expressed in E. coli (BL21 DE3) as Sumo-TTL fusion protein with an N-terminal His-Tag. Cells were induced with 0.5 mM IPTG and incubated at 18° C. for 18 h. Lysis was performed in presence of Lysozyme (100 μg/ml), DNAse (25 μg/ml) and PMSF (2 mM) followed by sonification (Branson® Sonifier; 16×8sec, 20% Amplitude) and debris centrifugation at 20.000 g for 30 min. His-Sumo-TTL was purified using a 5 ml His-Trap. For removal of the Sumo-Tag, peak fractions were incubated with SenP2 protease at 4° C. overnight. A second His-Trap run then removed the Sumo fraction. Purified protein was then desalted on a PD10 column (GE Healthcare); buffer was exchanged to MES/K pH 6.8 (20 mM MES, 100 mM KCl, 10 mM MgCl2). Protein aliquots were shock-frozen and stored at −80° C. at 0.8 g/l. Functionalization reactions were performed in a 150 μL solution consisting of 20 mM MES/K pH 7.0, 100 mM KCl, 10 mM MgCl2, 2.5 mM ATP, 1 mM (7), 1 μM TTL, 5 μM ubiquitin and 5 mM DTT. The mixture was incubated at 37° for 1-6 h. Proteins were separated and analysed by SDS-PAGE and a ChemiDoc™ XRS+gel imaging system (Bio-Rad, Hercules, Calif., US). Functionalization reactions were performed in a 150 μL solution consisting of 20 mM MES/K pH 7.0, 100 mM KCl, 10 mM MgCl2, 2.5 mM ATP, 1 mM (7), 1 μM TTL, 5 μM nanobody and 5 mM DTT. The mixture was incubated at 37° for 1-6 h. Proteins were separated and analysed by SDS-PAGE and a ChemiDoc™ XRS+gel imaging system (Bio-Rad, Hercules, Calif., US). Functionalization reactions were performed in a 150 μL solution consisting of 20 mM MES/K pH 7.0, 100 mM KCl, 10 mM MgCl2, 2.5 mM ATP, 1 mM (24), 1 μM TTL, 5 μM nanobody and 5 mM DTT. The mixture was incubated at 37° for 1-6 h. Proteins were separated and analysed by SDS-PAGE and a ChemiDoc™ XRS+gel imaging system (Bio-Rad, Hercules, Calif., US).

N[C@@H](Cc1cc(=O)oc2cc(O)ccc12)C(=O)O.O=C(O)C(F)(F)F [compound 7, (1S)-1-Carboxy-2-(7-hydroxy-2-oxo-2H-chromen-4-yl)ethyl ammonium trifluoroacetate]
successfully functionalized: TTL mediated functionalization of Tub-tagged Annexin V (SDS-PAGE and in-gel fluorescence (FIG. 10)) | TTL mediated functionalization of Tub-tagged GBP nanobody (1 mM (7), 5 μM nanobody, SDS-PAGE and in-gel fluorescence (FIG. 9)) | TTL mediated functionalization of Tub-tagged ubiquitin (1 mM (7), 5 μM ubiquitin, SDS-PAGE and in-gel fluorescence (FIG. 8))
